Reference: patent US12180187B2, “1-phenyl-5-azinylpyrazolyl-3-oxyalkyl acids and their use for controlling unwanted plant growth” (BAYER AKTIENGESELLSCHAFT, priority 2019, dated 2024)

How the values were obtained:
[1] = test system: VIOTR; test: Pre-emergence action at 320 g/ha against VIOTR; format: in vivo, Viola tricolor; settings: dosage 320 g/ha
How it was run: (§1)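 Percent herbicidal activity was assessed by eye roughly three weeks post-application, comparing with untreated plants. Treatment consisted of applying formulated compound in water plus 0.5% additive to covering soil at 600 l/ha before emergence.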

[2] = test system: VERPE; test: Pre-emergence action against VERPE, 1280 g/ha; format: in vivo, Veronica persica; settings: scored visually after about 3 weeks vs untreated controls (100% = plants have died)
How it was run: (§2)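 Greenhouse pre-emergence test on sown seeds in sandy loam; soil-surface spray of formulated compound with 0.5% additive at 600 L/ha water. Scored visually, % vs untreated, after about 3 weeks.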

[3] = test system: SETVI; test: Post-emergence action at 320 g/ha against SETVI; format: in vivo, Setaria viridis; settings: visual rating about 3 weeks after treatment vs untreated controls
How it was run: (§3)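 Greenhouse pot plants in sandy loam received a foliar spray of WP- or EC-formulated compound at the one-leaf stage. Percent activity against untreated controls was assessed visually around three weeks later.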

[4] = test system: MATIN; test: Post-emergence action against MATIN, 1.28 kg/ha; format: in vivo, Tripleurospermum inodorum (Matricaria inodora); settings: dosage 1280 g/ha, visual rating about 3 weeks after treatment vs untreated controls (100% = plants died)
How it was run: (§4)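 Spray at one-leaf stage with WP/EC + 0.5% additive, 600 L water/ha. Greenhouse, optimum conditions, ~3 wk. Visual % control vs untreated; 0 = no effect, 100 = dead.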

[5] = test system: ALOMY; test: Pre-emergence action against ALOMY, 1280 g/ha; format: in vivo, Alopecurus myosuroides; settings: visual scoring after about 3 weeks vs untreated controls, 100% = plants have died, 0% = like control plants
How it was run: as §2

[6] = test system: ABUTH; test: Post-emergence action against ABUTH, 1.28 kg/ha; format: in vivo, Abutilon theophrasti; settings: dosage 1280 g/ha, visual rating about 3 weeks after treatment vs untreated controls (100% = plants died)
How it was run: as §4

[7] = test system: VIOTR; test: Post-emergence action at 320 g/ha against VIOTR; format: in vivo, Viola tricolor; settings: visual rating about 3 weeks after treatment vs untreated controls
How it was run: as §3

[8] = test system: MATIN; test: Pre-emergence action at 320 g/ha against MATIN; format: in vivo, Tripleurospermum inodorum (Matricaria inodora); settings: visual scoring after about 3 weeks vs untreated controls
How it was run: as §1

[9] = test system: LOLRI; test: Post-emergence action against LOLRI, 1.28 kg/ha; format: in vivo, Lolium rigidum; settings: dosage 1280 g/ha, visual rating about 3 weeks after treatment vs untreated controls
How it was run: as §4

[10] = test system: ECHCG; test: Post-emergence action against ECHCG, 1.28 kg/ha; format: in vivo, Echinochloa crus-galli; settings: dosage 1280 g/ha, visual rating about 3 weeks after treatment vs untreated controls
How it was run: as §4

[11] = test system: ALOMY; test: Post-emergence action against ALOMY, 320 g/ha; format: in vivo, Alopecurus myosuroides; settings: dosage 320 g/ha, visual rating about 3 weeks after treatment vs untreated controls (100% = plants died)
How it was run: as §3

[12] = test system: LOLRI; test: Pre-emergence action at 320 g/ha against LOLRI; format: in vivo, Lolium rigidum; settings: visual scoring after about 3 weeks vs untreated controls
How it was run: as §1

[13] = test system: DIGSA; test: Post-emergence action against DIGSA, 1.28 kg/ha; format: in vivo, Digitaria sanguinalis; settings: dosage 1280 g/ha, visual rating about 3 weeks after treatment vs untreated controls
How it was run: as §4

[14] = test system: ECHGC; test: Pre-emergence action at 320 g/ha against ECHGC; format: in vivo, Echinochloa crus-galli; settings: visual scoring after about 3 weeks vs untreated controls
How it was run: as §1

[15] = test system: PHBPU; test: Post-emergence action at 320 g/ha against PHBPU; format: in vivo; settings: visual rating about 3 weeks after treatment vs untreated controls
Source text: Accordingly, the compounds of the invention have good herbicidal action against a broad spectrum of weed grasses and broad-leaved weeds and are therefore suitable for controlling unwanted vegetation by the post-emergence method. • b) Seeds of monocotyledonous and dicotyledonous weeds and crop plants are placed in sandy loam in plastic or organic planting pots, covered with soil and cultivated in a greenhouse under controlled growth conditions. 2 to 3 weeks after sowing, the test plants are treated at the one-leaf stage. The compounds of the invention, formulated in the form of wettable powders (WP) or as emulsion concentrates (EC), are then sprayed onto the green parts of the plants as aqueous suspension or emulsion with addition of 0.5% additive at a water application rate of 600 l/ha (converted). After the test plants have been kept in the greenhouse under optimum growth conditions for about 3 weeks, the activity of the preparations is rated visually in comparison to untreated controls. For example, 100% activity=the plants have died, 0% activity=like control plants. Tables 39 to 49 below show the effects of selected compounds of the general formula (I) according to Tables 1 and 2 on various harmful plants and at an application rate corresponding to 320 g/ha, which were obtained by the experimental procedure mentioned above.

| SMILES | Pre-emergence action against VIOTR in % [1] | Pre-emergence action against VERPE [2] | Post-emergence action against SETVI in % [3] | Post-emergence action against MATIN [4] | Pre-emergence action against ALOMY [5] | Post-emergence action against ABUTH [6] | Post-emergence action against VIOTR in % [7] | Pre-emergence action against MATIN in % [8] | Post-emergence action against LOLRI [9] | Post-emergence action against ECHCG [10] | Post-emergence action against ALOMY [11] | Pre-emergence action against LOLRI in % [12] | Post-emergence action against DIGSA [13] | Pre-emergence action against ECHGC in % [14] | Post-emergence action against PHBPU in % [15] |
| --- | --- | --- | --- | --- | --- | --- | --- | --- | --- | --- | --- | --- | --- | --- | --- |
| COC(=O)CNC(=O)COc1nn(-c2ccccc2F)c(-c2ccc(F)nc2)c1C(F)(F)F [Example X-007] | 100% | 100% | 80% | 90% | 100% | 90% | 80% | 100% | 100% | 100% | 100% | 100% | 100% | – | – |
| COC(=O)C(C)Oc1nn(-c2ccccc2)c(-c2ccc(F)nc2)c1Br (centres unmarked) [VII-014] | 100% | 90% | 100% | – | 90% | – | 90% | – | 90% | 90% | 90% | 100% | – | 80% | – |
| COCCOC(=O)COc1nn(-c2ccccc2F)c(-c2ccc(F)nc2)c1Br [VII-052] | 100% | 100% | – | 100% | 100% | 90% | 80% | 90% | – | 100% | 90% | 100% | 100% | 90% | 80% |
| CCOC(=O)C(C)Oc1nn(-c2ccccc2F)c(-c2ccc(F)nc2)c1I (centres unmarked) [VII-057] | 100% | 100% | 80% | 100% | 100% | – | 80% | 90% | – | 100% | 80% | 90% | 100% | – | – |
| COC(=O)[C@@H](C)Oc1nn(-c2cc(F)ccc2F)c(-c2ccc(F)nc2)c1Br [VII-062] | 100% | 100% | – | – | 100% | – | 80% | 100% | 100% | 100% | 90% | 100% | 100% | – | 80% |
| CCOC(=O)C(C)Oc1nn(-c2ccccc2F)c(-c2ccc(F)nc2)c1C(F)(F)F (centres unmarked) [VII-066] | 100% | 100% | – | 90% | 100% | 90% | 80% | 100% | 100% | 100% | 90% | 90% | 100% | 90% | – |
